{"source": "patent US7488822B2", "about": "(Wyeth, priority 1999, dated 2009)", "key": {"[1]": {"system": "rat uterine decidualization", "test": "Rat decidualization assay", "type": "in vivo", "conditions": "for Decidualization IC50: decrease in EC50 progesterone induced decidual response; for Estimated EC50 (mg/kg, s.c.): uterine wet weight; for Estimated average EC50 (mg/kg, s.c.): average for dose-response curves", "protocol": "The animals are treated once daily for seven days. […] Uteri are removed and trimmed of fat.\nBody weight: Mean total animal body weight (default-kg)\nDecidual response: [(D-C)/C]×100%"}, "T47D cells": {"system": "T47D cells", "test": "T47D cell proliferation assay (BrdU incorporation)", "type": "cell-based", "conditions": "half-maximal decrease in trimegestone induced BrdU incorporation, individual studies, read-out: Estimated IC50", "protocol": "T47D cell proliferation assay • The objective of this assay is the determination of progestational and antiprogestational potency by using a cell proliferation assay in T47D cells. A compound's effect on DNA synthesis in T47D cells is measured. […] Growth medium: DMEM:F12 (1:1) (GIBCO, BRL) supplemented with 10% (v/v) fetal bovine serum (not heat-inactivated), 100 U/ml penicillin, […], and 2 mM GlutaMax (GIBCO, BRL). • b. Treatment medium: Minimum Essential Medium (MEM) (#51200-038GIBCO, BRL) phenol red-free supplemented with 0.5% charcoal stripped fetal bovine serum, 100 U/ml penicillin, […] streptomycin, and 2 mM GlutaMax (GIBCO, BRL). • c. Cell Culture • Stock T47 D cells are maintained in growth medium. For BrdU incorporation assay, cells are plated in 96-well plates (Falcon, Becton Dickinson Labware) at 10,000 cells/well in growth medium. […] Cell Proliferation Assay • At the end of BrdU labeling, the medium is removed and BrdU incorporation is measured using a cell proliferation ELISA kit (#RPN 250, Amersham Life Science) according to manufacturer's instructions. […] Then 25 μl of 1 M sulfuric acid is added to each well to stop color reaction and optical density is read in a plate reader at 450 nm within 5 min. • e. […] EC50 or IC50 values are calculated from the retransformed values. […]"}}, "note": "“And” between values parts separate entries of the source, which are not always exact repeats. Equal entries are not always repeated."}
{"compound": "CC1(C)OC(=O)Nc2ccc(-c3cccc(Br)c3)cc21", "note": "[Compound 13, 6-(3-Bromo-phenyl)-4,4-dimethyl-1,4-dihydro-benzo[d][1,3]-oxazin-2-one]", "values": [{"measurement": "Decidualization IC50", "setting": "[1]", "value": 3, "unit": "mg/kg"}]}
{"compound": "CC1(C)OC(=O)Nc2ccc(-c3ccc(S(N)(=O)=O)s3)cc21", "note": "[Example 141, 5-(4,4Dimethyl-2-oxo-1,4-dihydro-2H-benzo[d][1,3]-oxazin-6-yl)-thiophene-2-sulfonamide]", "values": [{"measurement": "melting point", "value": "258 to 260", "unit": "°C"}]}
{"compound": "CC1(C)OC(=O)Nc2ccc(-c3ccc(C#N)c(F)c3)cc21", "note": "[Example 114, 6-(4-Cyano-3-fluoro-phenyl)-4,4-dimethyl-1,4-dihydrobenzo[d][1,3]-oxazin-2-one]", "values": [{"measurement": "melting point", "value": "272 to 275", "unit": "°C"}]}
{"compound": "CC#C[C@]1(O)CC[C@H]2[C@@H]3CCC4=CC(=O)CCC4=C3[C@@H](c3ccc(N(C)C)cc3)C[C@@]21C", "note": "[RU486]", "values": [{"measurement": "IC50", "setting": "T47D cells", "value": "0.016 nM and 0.018 nM"}, {"measurement": "Estimated IC50 (mg/kg, p.o.)", "setting": "[1]; p.o., EC50 dose of progesterone, individual studies", "value": "0.21 mg/kg and 0.14 mg/kg"}]}
{"compound": "CC1(C)OC(=O)Nc2ccc(-c3coc(C#N)c3)cc21", "note": "[Compound 7, 4-(4,4-Dimethyl-2-oxo-1,4-dihydro-2H-benzo[d][1,3]oxazin-6-yl)-furan-2-carbonitrile]", "values": [{"measurement": "inhibition at 3 mg/kg", "setting": "[1]; @ 3 mg/kg, read-out: Decidualization, percentage inhibition at the dose specified", "value": 75, "unit": "%"}]}
{"compound": "CC1(C)OC(=O)Nc2ccc(-c3csc(C#N)c3)cc21", "note": "[Compound 17, 4-(4,4-Dimethyl-2-oxo-1,4-dihidro-2H-benzo[d][1,3]oxazin-6-yl)-thiophene-2-carbonitrile]", "values": [{"measurement": "Decidualization IC50", "setting": "[1]", "value": 2.3, "unit": "mg/kg"}]}
{"compound": "CC(=O)O[C@]1(C(C)=O)CC[C@H]2[C@@H]3C[C@H](C)C4=CC(=O)CC[C@]4(C)[C@H]3CC[C@@]21C", "note": "[MPA, medroxyprogesterone acetate]", "values": [{"measurement": "Estimated EC50 (mg/kg, s.c.)", "setting": "[1]; individual studies", "value": "0.42 mg/kg and 0.39 mg/kg (2×)"}]}
{"compound": "Cc1cc(C#N)sc1-c1ccc2c(c1)C1(CCCCC1)OC(=O)N2", "note": "[Compound 10, 5-(1,2-Dihydro-2-oxospiro[4H-3,1-benzoxazine-4,1-cyclohexan]-6-yl)-4-methyl-2-thiophenecabonitrile]", "values": [{"measurement": "Decidualization, percentage inhibition at the dose specified", "setting": "[1]; @ 10 mg/kg", "value": 50, "unit": "% @"}]}
{"compound": "CC1(C)OC(=O)Nc2ccc(-c3ccc(F)c(Cl)c3)cc21", "note": "[Compound 20, 6-(3-Chloro-4-fluoro-phenyl)-4,4-dimethyl-1,4-dihydro-benzo[d][1,3]oxazin-2-one]", "values": [{"measurement": "Decidualization IC50", "setting": "[1]", "value": 1, "unit": "mg/kg"}]}
{"compound": "N#Cc1cc(F)cc(-c2ccc3c(c2)C(C2CC2)(C2CC2)OC(=O)N3)c1", "note": "[Compound 15, 3-(4,4-Dicyclopropyl-2-oxo-1,4-dihydro-2H-benzo[d][1,3]oxazin-6-yl)-5-fluoro-benzonitrile]", "values": [{"measurement": "Decidualization IC50", "setting": "[1]", "value": 3, "unit": "mg/kg"}]}
{"compound": "CC(=O)[C@H]1CC[C@H]2[C@@H]3CCC4=CC(=O)CC[C@]4(C)[C@H]3CC[C@]12C", "note": "[Progesterone]", "values": [{"measurement": "Estimated EC50 (mg/kg, s.c.)", "setting": "[1]; individual studies", "value": 5.50, "unit": "mg/kg"}]}
{"compound": "C#C[C@]1(O)CC[C@H]2[C@@H]3CCC4=CC(=O)CC[C@@H]4[C@H]3C(=C)C[C@@]21CC", "note": "[3-Ketodesogestrel]", "values": [{"measurement": "Estimated average EC50 (mg/kg, s.c.)", "setting": "[1]", "value": 0.10, "unit": "mg/kg"}, {"measurement": "Estimated EC50 (mg/kg, s.c.)", "setting": "[1]; individual studies", "value": "0.10 mg/kg and 0.06 mg/kg and 0.11 mg/kg"}]}
{"compound": "Cc1cc(C#N)sc1-c1ccc2c(c1)C(C)(C)OC(=O)N2", "note": "[Compound 18, 5-(4,4-Dimethyl-2-oxo-1,4-dihydro-2H-benzo[d][1,3]oxazin-6-yl)-4-methyl-thiophene-2-carbonitrile]", "values": [{"measurement": "Decidualization IC50", "setting": "[1]", "value": 1.5, "unit": "mg/kg"}]}
{"compound": "C#C[C@]1(O)CC[C@H]2[C@@H]3CCC4=CC(=O)CC[C@@H]4[C@H]3CC[C@@]21CC", "note": "[Levonorgestrel]", "values": [{"measurement": "Estimated average EC50 (mg/kg, s.c.)", "setting": "[1]", "value": 0.10, "unit": "mg/kg"}, {"measurement": "Estimated EC50 (mg/kg, s.c.)", "setting": "[1]; individual studies", "value": "0.08 mg/kg and 0.12 mg/kg and 0.09 mg/kg (2×)"}]}
{"compound": "CC1(C)OC(=O)Nc2ccc(-c3cc(F)cc(C#N)c3)cc21", "note": "[Compound 19, 3-(4,4-Dimethyl-2-oxo-1,4-dihydro-2H-benzo[d][1,3]oxazin-6-yl)-5-fluorobenzonitrile]", "values": [{"measurement": "Decidualization IC50", "setting": "[1]", "value": 0.35, "unit": "mg/kg"}]}
